Assay results from PubChem BioAssay (NCI).
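Values below derive from 48-hour exposures of cells grown in 96-well plates, with endpoints linearly interpolated between the two concentrations bracketing the appropriate inhibition level. TGI denotes the concentration required for complete inhibition of growth.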

What was measured:
Test in all cases: NCI anticancer screen, dose series, 48 h
CAKI-1 renal = test system: CAKI-1 renal
KM12 colon = test system: KM12 colon
SNB-78 CNS = test system: SNB-78 CNS
ACHN renal = test system: ACHN renal
SF-268 CNS = test system: SF-268 CNS
SR leukemia = test system: SR leukemia
OVCAR-3 ovarian = test system: OVCAR-3 ovarian
HOP-92 NSCLC = test system: HOP-92 NSCLC
IGROV1 ovarian = test system: IGROV1 ovarian
HS 578T breast = test system: HS 578T breast
MCF7 breast = test system: MCF7 breast

Row | SMILES | TGI (CAKI-1 renal) | TGI (KM12 colon) | TGI (SNB-78 CNS) | TGI (ACHN renal) | TGI (SF-268 CNS) | TGI (SR leukemia) | TGI (OVCAR-3 ovarian) | TGI (HOP-92 NSCLC) | TGI (IGROV1 ovarian) | TGI (HS 578T breast) | TGI (MCF7 breast)
1 | COc1ccc(/C=C2\C(=O)N(C(=O)c3ccc(NC(C)=O)cc3)N=C2C)cc1OC | > 100 µM | > 100 µM | > 100 µM | > 100 µM | > 100 µM | > 100 µM | > 100 µM | – | – | – | –
2 | Cc1ccccc1NC(=O)C(=O)C(C1OC(=O)c2ccccc21)[N+](=O)[O-] (configuration not stated) | > 100 µM | > 100 µM | > 100 µM | > 100 µM | > 100 µM | > 100 µM | – | > 100 µM | > 100 µM | – | –
3 | CC(C)C(Sc1nc(-c2ccccc2)c(-c2ccccc2)[nH]1)C(=O)N/N=C/c1ccc(Cl)cc1 (configuration not stated) | 69.9 µM | 44.7 µM | > 100 µM | > 100 µM | 57.6 µM | > 100 µM | 35.5 µM | 54.2 µM | 48.8 µM | – | –
4 | COC1CCC(O)C(CO)O1 (configuration not stated) | – | > 100 µM | > 100 µM | > 100 µM | – | > 100 µM | > 100 µM | > 100 µM | 61.2 µM | – | –
5 | CCOC(=O)c1ccc(N2C(=O)/C(=C/c3ccc(N(CCC#N)CCC#N)cc3)N=C2c2cc([N+](=O)[O-])ccc2Cl)cc1 | > 100 µM | > 100 µM | > 100 µM | > 100 µM | > 100 µM | > 100 µM | > 100 µM | > 100 µM | > 100 µM | – | –
6 | Cc1c2ccccc2c(=O)n2c(-c3ccccn3)cccc12 | > 100 µM | > 100 µM | > 100 µM | > 100 µM | > 100 µM | > 100 µM | > 100 µM | > 100 µM | > 100 µM | – | –
7 | C[C@]12CC[C@H]3[C@@H](CC=C4C[C@@H](N5CCCC5)CC[C@@]43C)[C@@H]1C/C(=C\c1ccc([N+](=O)[O-])cc1)[C@@H]2O | 27.6 µM | 33.2 µM | – | 29.3 µM | 40.1 µM | 3.98 µM | 31.5 µM | 27.7 µM | 28.2 µM | 40.3 µM | 68.9 µM
8 | Nc1nc(N)c2cc(-c3cc4ccccc4[nH]3)ccc2n1 | 94.9 µM | 43.5 µM | – | 33.3 µM | 95.5 µM | 60.5 µM | > 100 µM | 35.2 µM | 33.4 µM | > 100 µM | 33.6 µM
9 | CCOc1cc2c(cc1OC)c[n+](C)c1c3cc(OC)c(OC)cc3ccc21 | > 100 µM | > 100 µM | > 89.9 µM | > 100 µM | > 100 µM | > 100 µM | > 100 µM | > 60.3 µM | > 100 µM | – | –
10 | COc1ccc(C2c3cc4c(cc3OC(N3CCOCC3)C2C)OCO4)cc1OC (configuration not stated) | 26.4 µM | > 100 µM | – | > 100 µM | > 100 µM | > 100 µM | 13.2 µM | > 92.3 µM | > 100 µM | 22.1 µM | > 96 µM
11 | Cc1cnoc1/N=C1\C=C(Nc2oncc2C)C(=O)c2ccccc21 | > 100 µM | > 100 µM | > 100 µM | > 100 µM | > 100 µM | > 100 µM | > 100 µM | > 100 µM | > 100 µM | – | –
